Results: PubChem BioAssay AID1918949 (Molecular Pharmacology Branch, DTP, NCI, 2023)

Test system: K24384-001-R-PDC complex spheroid viability
Test: Anticancer human tumor K24384-001-R-PDC patient-derived pancreatic adenocarcinoma cell line growth inhibition
Details: for IC50: curve of first compound; for viability, T/C: stronger effect = lower value
How it was run: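 Multicellular complex spheroids of tumor cells with human endothelial cells (HUVEC) and mesenchymal stem cells; the LSD1 inhibitor iadademstat was combined with standard-of-care or investigational agents. Top concentration at or near clinical Cmax, half-log dilutions; final DMSO ≤0.25%.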

[1] = second compound 0.1 µM, first compound 0.000316 µM
[2] = second compound 0.1 µM, first compound 0.001 µM
[3] = second compound 0.1 µM, first compound 0.00316 µM
[4] = second compound 0.1 µM, first compound 0.01 µM
[5] = second compound 0.1 µM, first compound 0.0316 µM
[6] = second compound 0.1 µM, first compound 0.1 µM
[7] = second compound 0.316 µM, first compound 0.000316 µM
[8] = second compound 0.316 µM, first compound 0.001 µM
[9] = second compound 0.316 µM, first compound 0.00316 µM
[10] = second compound 0.316 µM, first compound 0.01 µM
[11] = second compound 0.316 µM, first compound 0.0316 µM
[12] = second compound 0.316 µM, first compound 0.1 µM
[13] = second compound 1 µM, first compound 0.000316 µM
[14] = second compound 1 µM, first compound 0.001 µM
[15] = second compound 1 µM, first compound 0.00316 µM
[16] = second compound 1 µM, first compound 0.01 µM
[17] = second compound 1 µM, first compound 0.0316 µM
[18] = second compound 1 µM, first compound 0.1 µM
[19] = second compound 3.16 µM, first compound 0.000316 µM
[20] = second compound 3.16 µM, first compound 0.001 µM
[21] = second compound 3.16 µM, first compound 0.00316 µM
[22] = second compound 3.16 µM, first compound 0.01 µM
[23] = second compound 3.16 µM, first compound 0.0316 µM
[24] = second compound 3.16 µM, first compound 0.1 µM
[25] = second compound 10 µM, first compound 0.000316 µM
[26] = second compound 10 µM, first compound 0.001 µM
[27] = second compound 10 µM, first compound 0.00316 µM
[28] = second compound 10 µM, first compound 0.01 µM
[29] = second compound 10 µM, first compound 0.0316 µM
[30] = second compound 10 µM, first compound 0.1 µM
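Further: spheroids exposed to agents for seven days before luminescence viability reading.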
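Wherever viability, T/C is given: 100% = DMSO vehicle control viability.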

Compound | IC50 (second compound 0.1 µM) [nM] | IC50 (second compound 0.316 µM) [nM] | IC50 (second compound 1 µM) [nM] | IC50 (second compound 3.16 µM) [nM] | IC50 (second compound 10 µM) [nM] | viability, T/C [1] [%] | viability, T/C [2] [%] | viability, T/C [3] [%] | viability, T/C [4] [%] | viability, T/C [5] [%] | viability, T/C [6] [%] | viability, T/C [7] [%] | viability, T/C [8] [%] | viability, T/C [9] [%] | viability, T/C [10] [%] | viability, T/C [11] [%] | viability, T/C [12] [%] | viability, T/C [13] [%] | viability, T/C [14] [%] | viability, T/C [15] [%] | also measured
CC(C)CC(NC(=O)C(Cc1ccccc1)NC(=O)c1cnccn1)B(O)O (stereo not given) + NC1CCC(NC2CC2c2ccccc2)CC1 | 0.464 | 0.476 | 0.38 | 0.345 | 0.422 | 74 | 1.78 | 0.23 | 0.12 | 0.2 | 0.23 | 76.5 | 1.74 | 0.26 | 0.08 | 0.76 | 1.15 | 59.1 | 2.07 | 0.15 | viability, T/C [16]: 0.08%; viability, T/C [17]: 0.09%; viability, T/C [18]: 0.19%; viability, T/C [19]: 53.9%; viability, T/C [20]: 1.45%; viability, T/C [21]: 0.27%; viability, T/C [22]: 0.11%; viability, T/C [23]: 0.12%; viability, T/C [24]: 0.18%; viability, T/C [25]: 64.1%; viability, T/C [26]: 8.36%; viability, T/C [27]: 2.45%; viability, T/C [28]: 0.22%; viability, T/C [29]: 0.21%; viability, T/C [30]: 0.3%
CC(C)CC(NC(=O)CNC(=O)c1cc(Cl)ccc1Cl)B1OC(=O)CC(CC(=O)O)(C(=O)O)O1 (stereo not given) + NC1CCC(NC2CC2c2ccccc2)CC1 | 7.55 | 5.78 | 6.08 | 5.59 | 5 | 100 | 90.2 | 82.7 | 40.4 | 3.3 | 0.72 | 97.4 | 91.9 | 75.4 | 27.2 | 3.1 | 0.77 | 89.9 | 87.7 | 75.1 | viability, T/C [16]: 30.9%; viability, T/C [17]: 4.13%; viability, T/C [18]: 0.7%; viability, T/C [19]: 92.1%; viability, T/C [20]: 78.3%; viability, T/C [21]: 74.1%; viability, T/C [22]: 26.5%; viability, T/C [23]: 2.82%; viability, T/C [24]: 0.68%; viability, T/C [25]: 92.9%; viability, T/C [26]: 75.7%; viability, T/C [27]: 69.8%; viability, T/C [28]: 22.8%; viability, T/C [29]: 2.54%; viability, T/C [30]: 0.55%
